How the values were obtained:
[1] = test system: Corynebacterium striatum T40A3; assay: Antimicrobial assay (MIC, agar dilution); type: cell-based
Experimental: (§1) The antimicrobial activity of crude extract and partitions was evaluated against 36 pathogenic microorganisms (22 Gram-positive bacteria, 13 Gram-negative bacteria, and 1 yeast) according to Mahamodo et al.. The 36 microorganisms were grown overnight at 37°C on sloping Mueller-Hinton (MH) agar medium. Briefly, the bacteria were diluted with Ringer's Cysteine (RC) solution to obtain 10^6 bacteria/ml. […] Inocula of 10^4 colony forming units (CFU) were spotted ultimately with a multipoint inoculator (Steers Replicator).

[2] = test system: Corynebacterium striatum T46C1; assay: Antimicrobial assay (MIC, agar dilution); type: cell-based
Experimental: as §1

[3] = test system: Dermabacter hominis T47A7; assay: Antimicrobial assay (MIC, agar dilution); type: cell-based
Experimental: as §1

[4] = test system: Dermabacter hominis T49B5; assay: Antimicrobial assay (MIC, agar dilution); type: cell-based
Experimental: as §1

[5] = test system: Enterococcus faecalis T37B1; assay: Antimicrobial assay (MIC, agar dilution); type: cell-based
Experimental: as §1

[6] = test system: Enterococcus faecalis T47A16; assay: Antimicrobial assay (MIC, agar dilution); type: cell-based
Experimental: as §1

Escherichia coli T20A2 = assay: Antimicrobial assay (MIC, agar dilution); type: cell-based
Experimental: as §1

[7] = test system: Pseudomonas aeruginosa ATCC9027; assay: Antimicrobial assay (MIC, agar dilution); type: cell-based
Experimental: as §1

[8] = test system: Pseudomonas aeruginosa T41; assay: Antimicrobial assay (MIC, agar dilution); type: cell-based
Experimental: as §1

[9] = test system: Staphylococcus aureus 8142; assay: Antimicrobial assay (MIC, agar dilution); type: cell-based
Experimental: as §1

[10] = test system: Staphylococcus aureus 8143; assay: Antimicrobial assay (MIC, agar dilution); type: cell-based
Experimental: as §1

[11] = test system: Staphylococcus aureus 8148; assay: Antimicrobial assay (MIC, agar dilution); type: cell-based
Experimental: as §1

[12] = test system: Staphylococcus aureus T11; assay: Antimicrobial assay (MIC, agar dilution); type: cell-based
Experimental: as §1

[13] = test system: Staphylococcus aureus T21; assay: Antimicrobial assay (MIC, agar dilution); type: cell-based
Experimental: as §1

[14] = test system: Staphylococcus aureus T2510; assay: Antimicrobial assay (MIC, agar dilution); type: cell-based
Experimental: as §1

[15] = test system: Staphylococcus aureus T26A4; assay: Antimicrobial assay (MIC, agar dilution); type: cell-based
Experimental: as §1

[16] = test system: Staphylococcus aureus T281; assay: Antimicrobial assay (MIC, agar dilution); type: cell-based
Experimental: as §1

[17] = test system: Staphylococcus aureus T306; assay: Antimicrobial assay (MIC, agar dilution); type: cell-based
Experimental: as §1

[18] = test system: Staphylococcus aureus T61; assay: Antimicrobial assay (MIC, agar dilution); type: cell-based
Experimental: as §1

[19] = test system: Staphylococcus capitis T21A3; assay: Antimicrobial assay (MIC, agar dilution); type: cell-based
Experimental: as §1

[20] = test system: Staphylococcus capitis T29A2; assay: Antimicrobial assay (MIC, agar dilution); type: cell-based
Experimental: as §1

[21] = test system: Staphylococcus epidermidis T151; assay: Antimicrobial assay (MIC, agar dilution); type: cell-based
Experimental: as §1

[22] = test system: Staphylococcus epidermidis T19A1; assay: Antimicrobial assay (MIC, agar dilution); type: cell-based
Experimental: as §1

[23] = test system: Staphylococcus lugdunensis T36A1; assay: Antimicrobial assay (MIC, agar dilution); type: cell-based
Experimental: as §1

[24] = test system: Staphylococcus lugdunensis T47B2; assay: Antimicrobial assay (MIC, agar dilution); type: cell-based
Experimental: as §1

[25] = test system: Staphylococcus pettenkoferi T282; assay: Antimicrobial assay (MIC, agar dilution); type: cell-based
Experimental: as §1

[26] = test system: Staphylococcus pettenkoferi T33; assay: Antimicrobial assay (MIC, agar dilution); type: cell-based
Experimental: as §1

[27] = test system: Staphylococcus saprophyticus 8237; assay: Antimicrobial assay (MIC, agar dilution); type: cell-based
Experimental: as §1

[28] = test system: Streptococcus agalactiae T53A4; assay: Antimicrobial assay (MIC, agar dilution); type: cell-based; settings: amoxicillin
Experimental: as §1

[29] = test system: WI38 (human normal fibroblast-like lung cell line); assay: MTT cytotoxicity assay on WI38; type: cell-based; settings: WI-38, 72 h, mean ± SEM, six determinations
Experimental: (§2) Cell Culture. The cytotoxicity was evaluated on two cell lines: J774 (macrophage-like cell line, derived from BALB/c murine reticulum cell sarcoma) and WI38 (human normal fibroblast-like lung cell line), using the tetrazolium salt MTT [3-(4,5-dimethylthiazol-2-yl)-2,5-diphenyltetrazolium bromide (Sigma)] colorimetric method, as described by Bero et al.. J774 cells were cultivated in a humidified atmosphere with 5% CO2 at 37°C in RPMI 1640 medium (Life Technologies, Paisley, UK) containing 2 mM L-glutamine supplemented with 10% heat-inactivated fetal bovine serum (Life Technologies) and penicillin-streptomycin (100 UI/ml). WI38 cells were cultivated in a humidified atmosphere with 5% CO2 at 37°C in DMEM medium (Life Technologies) containing 4 mM L-glutamine, 1 mM sodium pyruvate supplemented with 10% heat-inactivated fetal bovine serum (Life Technologies), and penicillin-streptomycin (100 UI/ml).
Cytotoxicity Assay. Briefly, WI38 or J774 cells were seeded in 96-well plates (5000 cells/well/180 µl medium or 2.8 × 10^4 cells/ml). After 24 h, cells were treated with 20 μl of crude extract and partitions solutions in a fixed concentration of 50 µg/ml to calculate cell viability percentage. […] Absorbance was recorded at 570 nm and 620 nm. […]
(§3) Cell viability% = [AT/ANT] × 100, with A: absorbance, NT: control cells, and T: treated cells.

[30] = test system: J774 (macrophage-like cell line, derived from BALB/c murine reticulum cell sarcoma); assay: MTT cytotoxicity assay on J774; type: cell-based; settings: for IC50: Mus musculus, J774, MTT, 72 h, mean ± SEM, six determinations; for SI (IC50 WI38/IC50 J774): selectivity index WI38 vs J774
Experimental: as §2
Cytotoxicity Assay. Briefly, WI38 or J774 cells were seeded in 96-well plates (5000 cells/well/180 µl medium or 2.8 × 10^4 cells/ml). After 24 h, cells were treated with 20 μl of crude extract and partitions solutions in a fixed concentration of 50 µg/ml to calculate cell viability percentage. […] After 72 h, the medium was replaced by 100 μl of a 10% MTT solution (3 mg/ml in PBS) in medium. After 45 min, the medium was removed again and 100 μl of DMSO was added to solubilize formed formazan crystals. Absorbance was recorded at 570 nm and 620 nm. Each sample was tested in eight serial […] dilutions in 96-well microtiter plates, at least three wells per concentration in duplicate. Camptothecin (Sigma) was used as positive control (concentration range: 25–0.00032 µg/ml).
as §3

[31] = test system: several cultured human cancer cell lines; settings: cited from earlier work

For `CC1(C)S[C@@H]2[C@H](NC(=O)[C@H](N)c3ccc(O)cc3)C(=O)N2[C@H]1C(=O)O` [Amox, amoxicillin], the “Reference antibiotics MIC values” ([1]; amoxicillin) was “R (R: >16)”, the “Reference antibiotics MIC values” ([2]; amoxicillin) was “S (Amox (amoxicillin), S: ≤4)” and the “Reference antibiotics MIC values” ([3]; amoxicillin) was “R (R: >16)”. For the same compound, the “Reference antibiotics MIC values” ([4]; amoxicillin) was “S (Amox (amoxicillin), S: ≤4)”, the “Reference antibiotics MIC values” ([5]; amoxicillin) was “S (Amox (amoxicillin), S: ≤4)” and the “Reference antibiotics MIC values” ([6]; amoxicillin) was “R (R: >16)”. For the same compound, the “Reference antibiotics MIC values” (Escherichia coli T20A2; amoxicillin) was “S (Amox (amoxicillin), S: ≤4)”, the “Reference antibiotics MIC values” ([7]; amoxicillin) was “R (R: >16)” and the “Reference antibiotics MIC values” ([8]; amoxicillin) was “R (R: >16)”. For the same compound, the “Reference antibiotics MIC values” ([9]; amoxicillin) was “R (R: >16)”, the “Reference antibiotics MIC values” ([10]; amoxicillin) was “S (Amox (amoxicillin), S: ≤4)” and the “Reference antibiotics MIC values” ([11]; amoxicillin) was “R (R: >16)”. The “Reference antibiotics MIC values” ([12]; amoxicillin) was “R (R: >16)”, the “Reference antibiotics MIC values” ([13]; amoxicillin) was “R (R: >16)” and the “Reference antibiotics MIC values” ([14]; amoxicillin) was “R (R: >16)”. The “Reference antibiotics MIC values” ([15]; amoxicillin) was “R (R: >16)”, the “Reference antibiotics MIC values” ([16]; amoxicillin) was “R (R: >16)” and the “Reference antibiotics MIC values” ([17]; amoxicillin) was “S (Amox (amoxicillin), S: ≤4)”. For the same compound, the “Reference antibiotics MIC values” ([18]; amoxicillin) was “R (R: >16)”, the “Reference antibiotics MIC values” ([19]; amoxicillin) was “S (Amox (amoxicillin), S: ≤4)” and the “Reference antibiotics MIC values” ([20]; amoxicillin) was “S (Amox (amoxicillin), S: ≤4)”. For the same compound, the “Reference antibiotics MIC values” ([21]; amoxicillin) was “R (R: >16)”, the “Reference antibiotics MIC values” ([22]; amoxicillin) was “S (Amox (amoxicillin), S: ≤4)” and the “Reference antibiotics MIC values” ([23]; amoxicillin) was “S (Amox (amoxicillin), S: ≤4)”. The “Reference antibiotics MIC values” ([24]; amoxicillin) was “S (Amox (amoxicillin), S: ≤4)”, the “Reference antibiotics MIC values” ([25]; amoxicillin) was “S (Amox (amoxicillin), S: ≤4)” and the “Reference antibiotics MIC values” ([26]; amoxicillin) was “R (R: >16)”. For the same compound, the “Reference antibiotics MIC values” ([27]; amoxicillin) was “S (Amox (amoxicillin), S: ≤4)” and the “Reference antibiotics MIC values” [28] was “R (R: >16)”.
For `CC[C@@]1(O)C(=O)OCc2c1cc1n(c2=O)Cc2cc3ccccc3nc2-1` [Camptothecin], the IC50 [29] was 0.175 ± 0.029 µg/mL, the IC50 [30] was 0.011 ± 0.002 µg/mL and the “SI (IC50 WI38/IC50 J774)” value [30] was 15^∗∗∗.
With `C=C(C)[C@@H]1CC[C@]2(C)CC[C@]3(C)[C@H](CC[C@@H]4[C@@]5(C)CC[C@H](O)C(C)(C)[C@@H]5CC[C@]43C)[C@@H]12` [Compound 1, lupeol] the IC50 [29] was 19.2 ± 0.55 µg/mL, the IC50 [30] was 12.6 ± 0.23 µg/mL and the “SI (IC50 WI38/IC50 J774)” value [30] was 1.5^∗∗∗. The “SI (IC50 WI38/IC50 J774)” value ([30]; listed as Lupeol) was 1.5.
In the case of `C[C@H](C/C=C/C(C)(C)OO)[C@H]1CC[C@@]2(C)[C@@H]3CC[C@H]4C(C)(C)[C@@H](O)CC[C@@]45C[C@@]35CC[C@]12C` [Compound 3a, 25-hydroperoxycycloart-23-en-3β-ol], the “cytotoxic activity” value [31] is listed as “significant cytotoxic activity”.
For `C=C(C)C(CC[C@@H](C)[C@H]1CC[C@@]2(C)[C@@H]3CC[C@H]4C(C)(C)[C@@H](O)CC[C@@]45C[C@@]35CC[C@]12C)OO` (stereo partly drawn) [Compound 3b, 24-hydroperoxycycloart-25-en-3β-ol], the “cytotoxic activity” value [31] is given as “significant cytotoxic activity”.
With `CNC(C)C1CCC(N)C(OC2C(N)CC(N)C(OC3OCC(C)(O)C(NC)C3O)C2O)O1` (stereo not drawn) [Gent, gentamicin] the “Reference antibiotics MIC values” ([1]; gentamicin) was “R (R: >8)”, the “Reference antibiotics MIC values” ([2]; gentamicin) was “S (Gent (gentamicin), S: ≤4)” and the “Reference antibiotics MIC values” ([3]; gentamicin) was “S (Gent (gentamicin), S: ≤4)”. For the same compound, the “Reference antibiotics MIC values” ([4]; gentamicin) was “S (Gent (gentamicin), S: ≤4)”, the “Reference antibiotics MIC values” ([5]; gentamicin) was “S (Gent (gentamicin), S: ≤4)” and the “Reference antibiotics MIC values” ([6]; gentamicin) was “S (Gent (gentamicin), S: ≤4)”. For the same compound, the “Reference antibiotics MIC values” (Escherichia coli T20A2; gentamicin) was “R (R: >8)”, the “Reference antibiotics MIC values” ([7]; gentamicin) was “S (Gent (gentamicin), S: ≤4)” and the “Reference antibiotics MIC values” ([8]; gentamicin) was “S (Gent (gentamicin), S: ≤4)”. For the same compound, the “Reference antibiotics MIC values” ([9]; gentamicin) was “S (Gent (gentamicin), S: ≤4)”, the “Reference antibiotics MIC values” ([10]; gentamicin) was “S (Gent (gentamicin), S: ≤4)” and the “Reference antibiotics MIC values” ([11]; gentamicin) was “S (Gent (gentamicin), S: ≤4)”. The “Reference antibiotics MIC values” ([12]; gentamicin) was “S (Gent (gentamicin), S: ≤4)”, the “Reference antibiotics MIC values” ([13]; gentamicin) was “S (Gent (gentamicin), S: ≤4)” and the “Reference antibiotics MIC values” ([14]; gentamicin) was “S (Gent (gentamicin), S: ≤4)”. For the same compound, the “Reference antibiotics MIC values” ([15]; gentamicin) was “S (Gent (gentamicin), S: ≤4)”, the “Reference antibiotics MIC values” ([16]; gentamicin) was “S (Gent (gentamicin), S: ≤4)” and the “Reference antibiotics MIC values” ([17]; gentamicin) was “S (Gent (gentamicin), S: ≤4)”. For the same compound, the “Reference antibiotics MIC values” ([18]; gentamicin) was “S (Gent (gentamicin), S: ≤4)”, the “Reference antibiotics MIC values” ([19]; gentamicin) was “S (Gent (gentamicin), S: ≤4)” and the “Reference antibiotics MIC values” ([20]; gentamicin) was “S (Gent (gentamicin), S: ≤4)”. For the same compound, the “Reference antibiotics MIC values” ([21]; gentamicin) was “R (R: >8)”, the “Reference antibiotics MIC values” ([22]; gentamicin) was “S (Gent (gentamicin), S: ≤4)” and the “Reference antibiotics MIC values” ([23]; gentamicin) was “S (Gent (gentamicin), S: ≤4)”. For the same compound, the “Reference antibiotics MIC values” ([24]; gentamicin) was “S (Gent (gentamicin), S: ≤4)”, the “Reference antibiotics MIC values” ([25]; gentamicin) was “S (Gent (gentamicin), S: ≤4)” and the “Reference antibiotics MIC values” ([26]; gentamicin) was “S (Gent (gentamicin), S: ≤4)”. For the same compound, the “Reference antibiotics MIC values” ([27]; gentamicin) was “S (Gent (gentamicin), S: ≤4)”.
